{
  "source": "patent EP0450065A1",
  "about": "“ANTIVIRAL AGENT” (priority 1988, dated 1990)",
  "assay_type_in_all_cases": "cell-based",
  "key": {"[1]": {"tested_on": "herpes simplex virus type 1 (KOS strain)", "assay": "50% Tissue culture infective dose (TCID50), Read-Munch method, negative logarithm of virus dilution", "set-up": "key to Cytopathic effect [CPE] (5days) TCID50 / Cytopathic effect [CPE] (3days) TCID50: TCID50 as negative log of maximum virus dilution ratio", "method": "(§1) The amount of virus infecting 50% of tissues (TCID₅₀) was determined by the Read-Munch method and expressed in negative logarithm of the maximum radio of dilution of virus. The difference of the amount thus determined from the amount found in the control (omitting the treatment with a chemical) was reported as ΔTCID₅₀. A sample whose ΔCPE's found on the last day of observation and on each of the days spent for the observation exceeded 1.0 was evaluated as effective.\nAntiviral activity of Compound A and Compound B against herpes simplex virus type 1 (KOS strain) The test was carried out by following the procedure of Example 3."}, "[2]": {"tested_on": "herpes simplex virus type 1 (HF strain)", "assay": "Control of CPE (cytopathic effect) manifestation in vero cells", "set-up": "key to Cytopathic effect [CPE] (3days) Average / Cytopathic effect [CPE] (5days) Average / Cytopathic effect [CPE] (6days) Average: CPE score: 0 none, 0.5 minute spots, 1 = 25%, 2 = 50%, 3 = ≥75% cells; key to Cytopathic effect [CPE] (3days) △CPE / Cytopathic effect [CPE] (5days) △CPE / Cytopathic effect [CPE] (3days) ΔCPE / Cytopathic effect [CPE] (6days) ΔCPE: ΔCPE = difference of average CPE score (0–3 scale) from control", "conditions": "100 μg/ml", "method": "In vitro antiviral activity of Compound A against herpes simplex virus type 1 (HF strain) Compound A was tested for antiviral effect by the following two methods.\nVero cells cultured and grown in a monolayer on microplates to test for cytopathic effect due to viral infection, with solutions of Compound A diluted to varying ratios and solutions of virus diluted to varying ratios added severally thereto in a volume of 0.1 ml, were cultured under the conditions of 5% CO₂ and 37°C and were examined for CPE manifestation under a microscope. The observation was continued for five to six days.\nThe degree of CPE brought about by viral infection was rated on the five-point scale, wherein 3 stands for CPE observed on not less than 75% of cultured cells, 2 for CPE observed on 50% of cultured cells, 1 for CPE observed on 25% of cultured cells, 0.5 for occurrence of one to two extremely minute DPE spots, and 0 for perfect absence of recognizable CPE. The CPE scores obtained at the four holes in each microplate were averaged and the difference of the average from the average obtained in the control (omitting the treatment with a chemical) was reported as ΔCPE.\nIn vitro antiviral effect of Compound A against herpes simplex virus type 1 (HF strain) The test was carried out by following the procedure of Example 3."}, "[3]": {"tested_on": "herpes simplex virus type 1 (KOS strain)", "assay": "One-step growth of virus, plaque assay with vero cells", "conditions": "100 μg/ml, 24 hours; for inhibition at 100 µg/mL / log reduction at 100 µg/mL: Human alphaherpesvirus 1, Vero, 24 h; for inhibition at 100 µg/mL: read-out: Intracellular virus Control ratio %; for log reduction at 100 µg/mL: read-out: Intracellular virus Control ratio -logT/C", "method": "Antiviral activity of Compound A and Compound B against one-step growth of herpes simplex virus type 1 (KOS strain) Cells grown in a monolayer, with a sample of a given compound diluted in a varying ratio added, were pretreated for 15 minutes. Then, the pretreated cells were infected with the herpes simplex virus type 1 (KOS strain) at an infecting ratio of 0.25 and left standing for 24 hours. At the end of the standing, the intracellular and extracellular amounts of virus were determined by the plaque assay with vero cells."}, "[4]": {"tested_on": "herpes simplex virus type 2 (169 strain)", "assay": "50% Tissue culture infective dose (TCID50), Read-Munch method, negative logarithm of virus dilution", "set-up": "key to Cytopathic effect [CPE] (5days) TCID50 / Cytopathic effect [CPE] (3days) TCID50 / Cytopathic effect [CPE] (6days) TCID50: negative log of maximum virus dilution infecting 50% of tissues", "conditions": "HSV-2 (169); for log reduction at 100 µg/mL: difference from control", "method": "as §1\nIn vitro antiviral activity of Compound A against herpes simplex virus type 2 (169 strain) The test was carried out by following the procedure of Example 3."}, "[5]": {"conditions": "100 μg/ml, HSV-1 (KOS), Example 7"}, "[6]": {"conditions": "HSV-1 (HF strain), Example 5, difference from control"}, "[7]": {"conditions": "HSV-1 (HF), Example 3, difference from control"}},
  "note": "Where two headings read alike, the source gives them in different places.",
  "data": [
    {"smiles": "Nc1nc2c(ncn2COCCO)c(=O)[nH]1", "note": "[ACV, acyclovir, reference compound]", "values": [
      {"measurement": "Cytopathic effect [CPE] (3days) TCID50", "setting": "[1]; [5]", "result": 3.5},
      {"measurement": "Cytopathic effect [CPE] (5days) TCID50", "setting": "[1]; [5]", "result": 3.5},
      {"measurement": "log reduction at 100 µg/mL", "setting": "[1]; Human alphaherpesvirus 1, 72 h, read-out: Cytopathic effect [CPE] (3days) △TCID50", "result": 2},
      {"measurement": "log reduction at 100 µg/mL", "setting": "[1]; Human alphaherpesvirus 1, 120 h, read-out: Cytopathic effect [CPE] (5days) △TCID50", "result": 2.5},
      {"measurement": "Cytopathic effect [CPE] (3days) Average", "setting": "[2]; HSV-1 (HF strain), Example 5", "result": 0.875},
      {"measurement": "Cytopathic effect [CPE] (6days) Average", "setting": "[2]; HSV-1 (HF strain), Example 5", "result": 1.0},
      {"measurement": "Cytopathic effect [CPE] (3days) ΔCPE", "setting": "[2]; [6]", "result": 1.875},
      {"measurement": "Cytopathic effect [CPE] (6days) ΔCPE", "setting": "[2]; [6]", "result": 2.0},
      {"measurement": "Cytopathic effect [CPE] (3days) Average", "setting": "[2]; HSV-1 (HF), Example 3", "result": 0},
      {"measurement": "Cytopathic effect [CPE] (5days) Average", "setting": "[2]; HSV-1 (HF), Example 3", "result": 0},
      {"measurement": "Cytopathic effect [CPE] (3days) △CPE", "setting": "[2]; [7]", "result": 1.5},
      {"measurement": "Cytopathic effect [CPE] (5days) △CPE", "setting": "[2]; [7]", "result": 1.75},
      {"measurement": "Intracellular virus Average", "setting": "[3]", "result": "8.50×10^2 /dish"},
      {"measurement": "inhibition at 100 µg/mL", "setting": "[3]; extracellular virus", "result": "> 99.9", "unit": "%"},
      {"measurement": "log reduction at 100 µg/mL", "setting": "[3]; extracellular virus", "result": 5.78},
      {"measurement": "inhibition at 100 µg/mL", "setting": "[3]", "result": "> 99.9", "unit": "%"},
      {"measurement": "log reduction at 100 µg/mL", "setting": "[3]", "result": 5.68},
      {"measurement": "Cytopathic effect [CPE] (3days) TCID50", "setting": "[4]; 100 μg/ml, Example 4", "result": 3.5},
      {"measurement": "Cytopathic effect [CPE] (5days) TCID50", "setting": "[4]; 100 μg/ml, Example 4", "result": 3.5},
      {"measurement": "Cytopathic effect [CPE] (3days) TCID50", "setting": "[4]; 100 μg/ml, Example 6", "result": "< 3.5"},
      {"measurement": "Cytopathic effect [CPE] (6days) TCID50", "setting": "[4]; 100 μg/ml, Example 6", "result": 3.5},
      {"measurement": "log reduction at 100 µg/mL", "setting": "[4]; Human alphaherpesvirus 2, 72 h, read-out: Cytopathic effect [CPE] (3days) △TCID50, 100 μg/ml, Example 4", "result": 3},
      {"measurement": "log reduction at 100 µg/mL", "setting": "[4]; Human alphaherpesvirus 2, 72 h, read-out: Cytopathic effect [CPE] (3days) △TCID50, 100 μg/ml, Example 6", "result": "> 3.2"},
      {"measurement": "log reduction at 100 µg/mL", "setting": "[4]; Human alphaherpesvirus 2, 120 h, read-out: Cytopathic effect [CPE] (5days) △TCID50, 100 μg/ml, Example 4", "result": 3},
      {"measurement": "log reduction at 100 µg/mL", "setting": "[4]; Human alphaherpesvirus 2, 144 h, read-out: Cytopathic effect [CPE] (6days) △TCID50, 100 μg/ml, Example 6", "result": 3.2}
    ]}
  ]
}
